Tested on: p53 target genes (KIAA0284; PODXL1; RRAD; FHL2; TP53I3)
Assay: p53 genotoxicity assay: RT-QMPSF of p53 target gene induction in EBV-immortalized human lymphocytes (wild type TP53 vs p.R175H)
Details: 0.3 μM doxorubicin; lymphocytes from a healthy control and from a Li-Fraumeni patient with p.R175H germline mutation; FIG. 2
Protocol: In the first version of this assay EBV-immortalized human lymphocytes derived from healthy blood donor with wild type TP53 or Li-Fraumeni patients harboring germline heterozygous TP53 mutations are cultured in 24 well plates, during 5 h, with or without the chemicals to test. RNA is then extracted using Nucleospin RNAII kit (Macherey Nagel). […] RT-QMPSF analysis using 5 TP53 target genes and 2 control amplicons are performed on cells treated or not with the chemicals and profiles were compared after normalization on controls amplicons.
In each case, the TP53 genotype of EBV-immortalized lymphocytes was checked by sequencing and QMPSF analyses. EBV-transformed lymphocytes were maintained in RPMI 1640 medium (GIBCO, Invitrogen), supplemented with 10% heat-inactivated fetal bovine serum (Invitrogen) at 37° C. with 5% CO2. […]
After treatment cells were centrifuged, lysed using RA1 reagent from Nucleospin RNAII (Macherey Nagel), RNA was extracted following the manufacturer's instructions and quantified using a ND-1000 UV-Vis Spectrophotometer (NanoDrop technologies). The integrity of the RNA was assessed with the Agilent 2100 Bioanalyzer (Agilent), according to the manufacturer's instructions. […]

## COc1cccc2c1C(=O)c1c(O)c3c(c(O)c1C2=O)C[C@@](O)(C(=O)CO)C[C@@H]3O[C@H]1C[C@H](N)[C@H](O)[C@H](C)O1 [doxorubicin]
  expression induction of p53 target genes (RT-QMPSF): showed clearly expression induction of 5 p53 target genes (KIAA0284; PODXL1; RRAD; FHL2; TP53I3) specifically in control lymphocytes
